Reference: patent US10669242B2 (priority 2016, dated 2020)

biological target: T1, recombinant glucosyltransferase domain of C. difficile Toxin B/TcdB (Clostridioides difficile, UniProt P18177); assay: biochemical
T1 construct: 6-His (C); purchased R&D Systems 6246-GT
T1 sequence (P18177 1-543): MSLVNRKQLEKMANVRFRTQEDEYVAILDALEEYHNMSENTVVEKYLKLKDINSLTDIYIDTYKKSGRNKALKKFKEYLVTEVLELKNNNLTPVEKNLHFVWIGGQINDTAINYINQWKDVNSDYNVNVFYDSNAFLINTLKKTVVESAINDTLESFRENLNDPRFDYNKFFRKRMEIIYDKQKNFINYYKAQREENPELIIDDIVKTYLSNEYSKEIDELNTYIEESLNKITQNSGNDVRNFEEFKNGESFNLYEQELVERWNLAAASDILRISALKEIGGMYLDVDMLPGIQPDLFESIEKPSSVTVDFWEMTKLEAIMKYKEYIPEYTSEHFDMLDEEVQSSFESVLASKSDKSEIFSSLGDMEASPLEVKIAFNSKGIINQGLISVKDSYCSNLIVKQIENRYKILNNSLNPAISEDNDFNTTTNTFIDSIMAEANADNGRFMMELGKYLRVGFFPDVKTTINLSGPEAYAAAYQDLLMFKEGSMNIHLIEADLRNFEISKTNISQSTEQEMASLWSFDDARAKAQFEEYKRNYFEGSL

SMILES | IC50
O=C(Nc1ccccn1)c1ccc(CN2C(=O)c3ccc(Cl)cc3NC(=O)[C@H]2Cc2ccccc2)cc1 [Example 4h, (R)-4-((3-benzyl-8-chloro-2,5-dioxo-2,3-dihydro-1H-benzo[e][1,4]diazepin-4(5H)-yl)methyl)-N-(pyridin-2-yl)benzamide] | < 100 nM
COc1cc(CN2C(=O)c3ccc(Cl)cc3NC(=O)[C@H]2Cc2ccccn2)ccc1C(=O)c1ccccn1 [Example 11j, (R)-8-chloro-4-(3-methoxy-4-picolinoylbenzyl)-3-(pyridin-2-ylmethyl)-3,4-dihydro-1H-benzo[e][1,4]diazepine-2,5-dione] | < 100 nM
CNC(=O)c1ccc(-c2cc(CN3C(=O)c4ccc(Cl)cc4NC(=O)[C@H]3Cc3ccccn3)ccc2C(=O)O)cc1 [Example 8o, (R)-5-((8-chloro-2,5-dioxo-3-(pyridin-2-ylmethyl)-2,3-dihydro-1H-benzo[e][1,4]diazepin-4(5H)-yl)methyl)-4′-(methylcarbamoyl)-[1,1′-biphenyl]-2-carboxylic acid] | 1000 to 10000 nM
Cc1ccc2c(c1)NC(=O)[C@@H](Cc1ccc(Cl)c(Cl)c1)N(Cc1ccc(C(=O)Nc3ccccn3)cc1)C2=O [Example 4ac, (R)-4-((3-(3,4-dichlorobenzyl)-8-methyl-2,5-dioxo-2,3-dihydro-1H-benzo[e][1,4]diazepin-4(5H)-yl)methyl)-N-(pyridin-2-yl)benzamide] | 100 to 999 nM
Cc1ccc(C[C@@H]2C(=O)Nc3cc(Cl)ccc3C(=O)N2Cc2ccc(C(=O)Nc3ccccn3)cc2)cc1 [Example 4co, (R)-4-((8-chloro-3-(4-methylbenzyl)-2,5-dioxo-2,3-dihydro-1H-benzo[e][1,4]diazepin-4(5H)-yl)methyl)-N-(pyridin-2-yl)benzamide] | 100 to 999 nM
Cc1cncc(NC(=O)c2ccc(CN3C(=O)c4ccc(Cl)cc4NC(=O)[C@H]3C)cc2)n1 [Example 5o, (R)-4-((8-chloro-3-methyl-2,5-dioxo-2,3-dihydro-1H-benzo[e][1,4]diazepin-4(5H)-yl)methyl)-N-(6-methylpyrazin-2-yl)benzamide] | 100 to 999 nM
Cc1ccc(NC(=O)c2ccc(CN3C(=O)c4ccc(NC(=O)c5cc(C)on5)cc4NC(=O)[C@H]3C)cc2)nc1 [Example 18c, (R)-5-methyl-N-(3-methyl-4-(4-((5-methylpyridin-2-yl)carbamoyl)benzyl)-2,5-dioxo-2,3,4,5-tetrahydro-1H-benzo[e][1,4]diazepin-8-yl)isoxazole-3-carboxamide] | 1000 to 10000 nM
CN(C)CC(=O)Nc1cc(CN2C(=O)c3ccc(Cl)cc3NC(=O)[C@H]2Cc2ccccn2)ccc1C(=O)O [Example 22d] | 1000 to 10000 nM
Cc1ccc(NC(=O)c2ccc(CN3C(=O)c4ccc(NC(=O)C(C)C)cc4NC(=O)[C@H]3C)cc2)nc1 [Example 18b, (R)-4-((8-isobutyramido-3-methyl-2,5-dioxo-2,3-dihydro-1H-benzo[e][1,4]diazepin-4(5H)-yl)methyl)-N-(5-methylpyridin-2-yl)benzamide] | 10000 to 35000 nM
C[C@H]1C(=O)Nc2cc(Cl)ccc2C(=O)N1Cc1ccc(C(=O)Nc2ccccn2)cc1 [Example 4f, (S)-4-((8-chloro-3-methyl-2,5-dioxo-2,3-dihydro-1H-benzo[e][1,4]diazepin-4(5H)-yl)methyl)-N-(pyridin-2-yl)benzamide] | < 100 nM
CN(C)CCC(=O)Nc1cc(CN2C(=O)c3ccc(Cl)cc3NC(=O)[C@H]2Cc2ccccn2)ccc1C(=O)O [Example 22k] | 100 to 999 nM
Cn1cccc(C(=O)c2ccc(CN3C(=O)c4ccc(Cl)cc4NC(=O)[C@H]3Cc3ccccn3)cc2)c1=O [Example 53a] | 100 to 999 nM
O=C(Nc1nncs1)c1ccc(CN2C(=O)c3ccc(Cl)cc3NC(=O)[C@H]2Cc2ccccn2)cc1 [Example 4bp, (R)-4-((8-chloro-2,5-dioxo-3-(pyridin-2-ylmethyl)-2,3-dihydro-1H-benzo[e][1,4]diazepin-4(5H)-yl)methyl)-N-(1,3,4-thiadiazol-2-yl)benzamide] | 100 to 999 nM
C[C@@H]1C(=O)Nc2cc(Cl)ccc2C(=O)N1Cc1ccc(C(=O)Nc2ccccn2)cc1 [Example 4z, (R)-4-((8-chloro-3-methyl-2,5-dioxo-2,3-dihydro-1H-benzo[e][1,4]diazepin-4(5H)-yl)methyl)-N-(pyridin-2-yl)benzamide] | < 100 nM
O=C(O)c1ccc(CN2C(=O)c3ccc(Cl)cc3NC(=O)[C@H]2Cc2cccnc2)cc1 [Example 2a, (R)-4-((8-Chloro-2,5-dioxo-3-(pyridin-3-ylmethyl)-2,3-dihydro-1H-benzo[e][1,4]diazepin-4(5H)-yl)methyl)benzoic Acid] | 100 to 999 nM
Cn1ccnc1C(=O)[C@H]1CC[C@H](CN2C(=O)c3ccc(Cl)cc3NC(=O)[C@H]2Cc2ccccn2)CC1 [Example 33c] | 1000 to 10000 nM
COc1cnc(NC(=O)c2ccc(CN3C(=O)c4ccc(Cl)cc4NC(=O)[C@H]3Cc3cccnc3)cc2)nc1 [Example 5m, (R)-4-((8-chloro-2,5-dioxo-3-(pyridin-3-ylmethyl)-2,3-dihydro-1H-benzo[e][1,4]diazepin-4(5H)-yl)methyl)-N-(5-methoxypyrimidin-2-yl)benzamide] | < 100 nM

SMILES | IC50
O=C(Nc1ccccn1)c1ccc(S(=O)(=O)N2Cc3ccc(Cl)cc3NC(=O)[C@H]2Cc2ccccn2)cc1 [Example 19b, (R)-4-((8-chloro-2-oxo-3-(pyridin-2-ylmethyl)-2,3-dihydro-1H-benzo[e][1,4]diazepin-4(5H)-yl)sulfonyl)-N-(pyridin-2-yl)benzamide] | < 100 nM
Nc1ccc(CN2C(=O)c3ccc(Cl)cc3NC(=O)[C@H]2Cc2ccccn2)cc1 [Example 23a, (R)-4-(4-Aminobenzyl)-8-chloro-3-(pyridin-2-ylmethyl)-3,4-dihydro-1H-benzo[e][1,4]diazepine-2,5-dione] | 1000 to 10000 nM
O=C(Nc1ccc(C(F)(F)F)cn1)c1ccc(CN2C(=O)c3ccc(Cl)cc3NC(=O)[C@H]2Cc2ccccn2)cc1-c1ccc2c(c1)OCO2 [Example 5f, (R)-2-(benzo[d][1,3]dioxol-5-yl)-4-((8-chloro-2,5-dioxo-3-(pyridin-2-ylmethyl)-2,3-dihydro-1H-benzo[e][1,4]diazepin-4(5H)-yl)methyl)-N-(5-(trifluoromethyl)pyridin-2-yl)benzamide] | 100 to 999 nM
NC(=O)c1ccc(CN2C(=O)c3ccc(Cl)cc3NC(=O)[C@@H]2Cc2ccc(Cl)c(Cl)c2)cc1 [Example 13a, (S)-4-((8-Chloro-3-(3,4-dichlorobenzyl)-2,5-dioxo-2,3-dihydro-1H-benzo[e][1,4]diazepin-4(5H)-yl)methyl)benzamide] | 10000 to 35000 nM
O=C(Nc1cccnn1)c1ccc(CN2C(=O)c3ccc(Cl)cc3NC(=O)[C@H]2Cc2ccccn2)cc1 [Example 4bl, (R)-4-((8-chloro-2,5-dioxo-3-(pyridin-2-ylmethyl)-2,3-dihydro-1H-benzo[e][1,4]diazepin-4(5H)-yl)methyl)-N-(pyridazin-3-yl)benzamide] | 100 to 999 nM
Cc1cccc(-c2cc(CN3C(=O)c4ccc(Cl)cc4NC(=O)[C@H]3Cc3ccccn3)ccc2C(=O)O)c1 [Example 8h, (R)-5-((8-chloro-2,5-dioxo-3-(pyridin-2-ylmethyl)-2,3-dihydro-1H-benzo[e][1,4]diazepin-4(5H)-yl)methyl)-3′-methyl-[1,1′-biphenyl]-2-carboxylic acid] | 100 to 999 nM
O=C(Nc1ccncn1)c1ccc(CN2C(=O)c3ccc(Cl)cc3NC(=O)[C@H]2Cc2cccnc2)cc1 [Example 4t, (R)-4-((8-chloro-2,5-dioxo-3-(pyridin-3-ylmethyl)-2,3-dihydro-1H-benzo[e][1,4]diazepin-4(5H)-yl)methyl)-N-(pyrimidin-4-yl)benzamide] | < 100 nM
Cc1cc(CN2C(=O)c3ccc(Cl)cc3NC(=O)[C@H]2Cc2ccccn2)ccc1C(=O)c1ccccn1 [Example 11h, (R)-8-chloro-4-(3-methyl-4-picolinoylbenzyl)-3-(pyridin-2-ylmethyl)-3,4-dihydro-1H-benzo[e][1,4]diazepine-2,5-dione] | < 100 nM
O=C1Nc2cc(Cl)ccc2C(=O)N(C[C@H]2CC[C@H](C(=O)c3cccc4cccnc34)CC2)[C@@H]1Cc1ccccn1 [Example 33a, (R)-8-Chloro-3-(pyridin-2-ylmethyl)-4-(((1r,4R)-4-(quinoline-8-carbonyl)cyclohexyl)methyl)-3,4-dihydro-1H-benzo[e][1,4]diazepine-2,5-dione] | 10000 to 35000 nM
Cc1ccc(NC(=O)c2ccc(CN3C(=O)c4ccc(Cl)cc4NC(=O)[C@H]3CCN3CCOCC3)cc2)nc1 [Example 10a, (R)-4-((8-Chloro-3-(2-morpholinoethyl)-2,5-dioxo-2,3-dihydro-1H-benzo[e][1,4]diazepin-4(5H)-yl)methyl)-N-(5-methylpyridin-2-yl)benzamide] | 1000 to 10000 nM
O=C(O)c1ccc(CN2C(=O)c3ccc(Cl)cc3NC(=O)[C@H]2Cc2ccncc2)cc1 [Example 1c] | 10000 to 35000 nM
COCCC(=O)Nc1ccc2c(c1)NC(=O)[C@@H](C)N(Cc1ccc(C(=O)Nc3ccc(C)cn3)cc1)C2=O [Example 18a, (R)-4-((8-(3-Methoxypropanamido)-3-methyl-2,5-dioxo-2,3-dihydro-1H-benzo[e][1,4]diazepin-4(5H)-yl)methyl)-N-(5-methylpyridin-2-yl)benzamide] | 1000 to 10000 nM
Cc1ccc(C(=O)Nc2ccc(CN3C(=O)c4ccc(Cl)cc4NC(=O)[C@H]3Cc3ccccn3)cc2)nc1 [Example 26f] | < 100 nM
O=C(Nc1ccc(CN2C(=O)c3ccc(Cl)cc3NC(=O)[C@H]2Cc2ccccn2)cc1)c1cc(Cl)ccn1 [Example 26h] | 100 to 999 nM
O=C1Nc2cc(Cl)ccc2C(=O)N(C[C@H]2CC[C@H](C(=O)c3ccccn3)CC2)[C@@H]1Cc1ccccn1 [Example 11c, (R)-8-chloro-4-((4-picolinoylcyclohexyl)methyl)-3-(pyridin-2-ylmethyl)-3,4-dihydro-1H-benzo[e][1,4]diazepine-2,5-dione] | < 100 nM
Cc1ccccc1C[C@@H]1C(=O)Nc2cc(Cl)ccc2C(=O)N1Cc1ccc(C(=O)Nc2ccccn2)cc1 [Example 4ai, (R)-4-((8-chloro-3-(2-methylbenzyl)-2,5-dioxo-2,3-dihydro-1H-benzo[e][1,4]diazepin-4(5H)-yl)methyl)-N-(pyridin-2-yl)benzamide] | < 100 nM
